How the values were obtained:
Assay in all cases: relative viability (nuclei count vs DMSO), 5 days (fraction); higher = more cells survive
Neratinib + Olaparib = compound: CCOc1cc2ncc(C#N)c(Nc3ccc(OCc4ccccn4)c(Cl)c3)c2cc1NC(=O)/C=C/CN(C)C [Neratinib] + O=C(c1cc(Cc2n[nH]c(=O)c3ccccc23)ccc1F)N1CCN(C(=O)C2CC2)CC1 [Olaparib] (partner 8 µM)
Outline: (§1)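 One day after seeding in 1536-well plates, lung cancer cell lines were dosed by pin tool. Dosing was either single-drug or a fixed anchor-drug dose plus five library-drug doses (not always all listed) in √10 steps. After 5 days, nuclei were stained in one fix-and-stain step and counted on 4× images, and relative viability is the nuclei count of treated wells over that of vehicle wells, given as the median of duplicate plates.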

Neratinib + Palbociclib = compound: CCOc1cc2ncc(C#N)c(Nc3ccc(OCc4ccccn4)c(Cl)c3)c2cc1NC(=O)/C=C/CN(C)C [Neratinib] + CC(=O)c1c(C)c2cnc(Nc3ccc(N4CCNCC4)cn3)nc2n(C2CCCC2)c1=O [Palbociclib] (partner 0.5 µM)
Outline: as §1

Neratinib + Pemetrexed = compound: CCOc1cc2ncc(C#N)c(Nc3ccc(OCc4ccccn4)c(Cl)c3)c2cc1NC(=O)/C=C/CN(C)C [Neratinib] + Nc1nc2[nH]cc(CCc3ccc(C(=O)N[C@@H](CCC(=O)O)C(=O)O)cc3)c2c(=O)[nH]1 [Pemetrexed] (partner 0.2 µM)
Outline: as §1

Neratinib + Alpelisib = compound: CCOc1cc2ncc(C#N)c(Nc3ccc(OCc4ccccn4)c(Cl)c3)c2cc1NC(=O)/C=C/CN(C)C [Neratinib] + Cc1nc(NC(=O)N2CCC[C@H]2C(N)=O)sc1-c1ccnc(C(C)(C)C(F)(F)F)c1 [Alpelisib] (partner 2 µM)
Outline: as §1

Cell Line | relative viability (Neratinib + Olaparib; first compound 0.01 µM) | relative viability (Neratinib + Olaparib; first compound 0.03162 µM) | relative viability (Neratinib + Olaparib; first compound 0.1 µM) | relative viability (Neratinib + Olaparib; first compound 1 µM) | relative viability (Neratinib + Palbociclib; first compound 0.01 µM) | relative viability (Neratinib + Palbociclib; first compound 0.03162 µM) | relative viability (Neratinib + Palbociclib; first compound 0.1 µM) | relative viability (Neratinib + Palbociclib; first compound 1 µM) | relative viability (Neratinib + Pemetrexed; first compound 0.01 µM) | relative viability (Neratinib + Pemetrexed; first compound 0.03162 µM) | relative viability (Neratinib + Pemetrexed; first compound 0.1 µM) | relative viability (Neratinib + Pemetrexed; first compound 1 µM) | relative viability (Neratinib + Alpelisib; first compound 0.01 µM) | relative viability (Neratinib + Alpelisib; first compound 0.03162 µM) | relative viability (Neratinib + Alpelisib; first compound 0.1 µM) | relative viability (Neratinib + Alpelisib; first compound 0.3162 µM) | relative viability (Neratinib + Alpelisib; first compound 1 µM) | relative viability (Neratinib + Olaparib; first compound 0.3162 µM) | relative viability (Neratinib + Pemetrexed; first compound 0.3162 µM) | relative viability (Neratinib + Palbociclib; first compound 0.3162 µM)
LCLC-97TM1 | 0.31 | 0.437 | 0.329 | 0.234 | 0.258 | 0.237 | 0.228 | 0.117 | 0.186 | 0.209 | 0.138 | 0.185 | 0.26 | 0.254 | 0.24 | 0.255 | 0.115 | – | – | –
NCI-H596 | 0.633 | 0.726 | 0.622 | 0.574 | – | – | – | – | 0.523 | 0.529 | 0.472 | 0.488 | 0.464 | 0.474 | 0.433 | 0.489 | 0.304 | 0.659 | 0.493 | –
NCI-H727 | 0.796 | 0.678 | – | 0.613 | 0.616 | 0.69 | – | 0.538 | – | – | – | – | 0.525 | 0.542 | – | 0.441 | 0.276 | 0.764 | – | 0.639
NCI-H1299 | 0.954 | 0.983 | 0.85 | 0.974 | – | – | – | – | – | – | – | – | 1 | – | – | 1.04 | 1.04 | 0.99 | – | –
NCI-H1563 | – | – | – | – | – | – | – | – | 0.812 | 0.924 | 0.739 | 0.582 | 0.815 | 0.984 | 0.877 | 0.843 | 0.875 | – | 0.747 | –
NCI-H1648 | 0.855 | 0.917 | 0.806 | 0.427 | 0.29 | 0.265 | 0.231 | 0.337 | 0.836 | 0.799 | 0.663 | 0.55 | – | – | – | – | – | 0.643 | 0.685 | 0.26
NCI-H1650 | 0.867 | 0.712 | 0.717 | 0.796 | 0.349 | 0.313 | 0.3 | 0.276 | 0.381 | 0.348 | 0.31 | 0.325 | – | – | – | – | – | 0.652 | 0.314 | 0.262
NCI-H1703 | 0.536 | 0.486 | 0.402 | 0.162 | – | – | – | – | – | – | – | – | 0.36 | 0.354 | 0.279 | 0.205 | 0.165 | 0.218 | – | –
NCI-H2342 | 0.397 | 0.416 | 0.385 | 0.298 | 0.52 | 0.493 | 0.534 | 0.454 | 0.722 | 0.774 | 0.714 | 0.497 | – | – | – | – | – | 0.331 | 0.564 | –
SW 900 | 0.975 | 0.826 | 0.714 | 0.607 | – | 0.56 | 0.537 | 0.288 | 0.514 | 0.473 | 0.426 | 0.371 | – | – | – | – | – | 0.662 | 0.454 | 0.372

— the supplement of paper PMC10307832
